Legend:
PD-L1/CHO-K1 cells = PD-L1/CHO-K1 cells (Homo sapiens (Human), UniProt Q9NZQ7); experiment: PD-L1 internalization (FACS, PD-L1/CHO-K1 cells); type: cell-based; settings: % activation of PD-L1 internalization = 1 − PD-L1 signal; 17 hours incubation
Summary of the method: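 PD-L1/CHO-K1 cells treated 17 h at 37 °C with compound (0.2% DMSO final), then surface PD-L1 stained with PE anti-CD274 and read by flow cytometry. Signal normalized to vehicle (100%) and unstained control (0%); internalization = 1 − normalized PD-L1 signal.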

[1] = tested on: Hep3B-OS8-hPDL1 / Jurkat-NFAT-PD1 cells; experiment: PDL1 Jurkat-NFAT reporter assay; type: cell-based; settings: Homo sapiens; 6 hours, luciferase
Procedure: PDL1 Jurkat-NFAT Reporter Assay
a. Preparation of Hep3B-OS8-hPDL1 • 1. Hep3B-OS8-hPDL1 cells were cultured in 1640 medium supplemented with 10% fetal bovine serum, 1% penicillin and streptomycin, in which 100 μg/mL G418 and Hygromycin B were also added. • 2. Cells were re-suspended with RPMI 1640 medium containing 10% FBS and the cell density was adjusted to 1.25E5 cells/mL. • 3. Cells were seeded into 96-well flat bottom plate (1.25E4 cells/100 μL/well). b. Compounds Solutions Preparation • 4. Remove the medium from pre-plated Hep3B-OS8-PDL1 cells. Wash once with 200 μL Assay Medium. • 5. Prepare the Compounds dilutions in RPMI 1640 medium with 10% FBS according to the Layout. • 6. Add compounds into each well in a volume of 50 μL in 9 concentrations (3, 1, 0.3, 0.1, 0.03, 0.01, 0.003, 0.001 and 0.0003 μM)}. Keytruda will be included as positive control at the concentration of 5 μg/mL. • 7. Incubate for 20-30 min at 37° C., 5% CO2. c. Preparation of Jurkat-NFAT-PD1 • 8. Jurkat-NFAT-PD1 cells were cultured in 1640 medium supplemented with 10% fetal bovine serum, 1% penicillin and streptomycin, in which 1000 μg/mL Hygromycin B and 0.3 μg/mL puromycin were also added. • 9. On the second day of assay, the cells were re-suspended with RPMI 1640 medium containing 10% FBS and the cell density was adjusted to 2.5E5 cells/mL. • 10. […]

PD-1/PD-L1 = PD-1/PD-L1 (Homo sapiens (Human), UniProt Q9NZQ7); experiment: PD-1/PD-L1 Homogeneous Time-Resolved Fluorescence (HTRF) binding assay; settings: 3 nM PD1, 10 nM PD-L1, 25° C., PBS pH 7.4
Summary of the method: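 HTRF with His-tagged human PD-L1 (19-238, 10 nM) and Fc-tagged human PD-1 (25-167, 3 nM) preincubated with inhibitors 40 min in PBS pH 7.4, 0.05% Tween-20, 0.1% BSA, 1% DMSO, 25° C. Eu anti-human IgG and anti-His-APC added, 60 min; 665/620 nm ratio; IC50 from percent control activity fit.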

Chain of PD-L1/CHO-K1 cells (Q9NZQ7 19-290): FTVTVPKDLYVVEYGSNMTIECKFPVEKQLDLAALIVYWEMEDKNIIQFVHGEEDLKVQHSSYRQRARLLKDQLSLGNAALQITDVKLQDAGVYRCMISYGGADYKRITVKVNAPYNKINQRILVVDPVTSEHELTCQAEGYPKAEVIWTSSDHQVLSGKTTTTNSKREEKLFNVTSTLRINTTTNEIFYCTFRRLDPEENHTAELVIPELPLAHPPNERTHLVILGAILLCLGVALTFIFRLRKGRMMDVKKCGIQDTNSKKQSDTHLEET
Chain of PD-1/PD-L1 (Q9NZQ7 19-238): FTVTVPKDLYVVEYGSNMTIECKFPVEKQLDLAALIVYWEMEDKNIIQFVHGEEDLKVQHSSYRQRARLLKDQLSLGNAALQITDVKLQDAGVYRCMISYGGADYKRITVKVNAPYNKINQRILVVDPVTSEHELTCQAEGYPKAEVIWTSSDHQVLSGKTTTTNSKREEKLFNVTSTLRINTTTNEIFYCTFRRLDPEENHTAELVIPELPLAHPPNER

O=C(O)[C@H](CO)NCCN1C(=O)COc2cc(-c3cccc(-c4cccc(-c5ccc6c(c5)OCC(=O)N6CCN[C@@H](CO)C(=O)O)c4Cl)c3Cl)ccc21 [Compound 465]
Internalization (PD-L1/CHO-K1 cells): 67.00%
EC50 [1]: 0.3 nM
IC50 (PD-1/PD-L1): 3.58 nM

O=C1COc2cc(-c3cccc(-c4cccc(-c5ccc6c(c5)OCC(=O)N6C[C@H]5CCCN5)c4Cl)c3Cl)ccc2N1C[C@H]1CCCN1 [Compound 529]
Internalization (PD-L1/CHO-K1 cells): 98.10%
EC50 [1]: 111 nM
IC50 (PD-1/PD-L1): 8.62 nM

— patent US20250340529A1, “Heterocyclic Compounds as Immunomodulators of PD-L1 Interactions” (Ascletis BioScience Co., Ltd, priority 2021, published 2025)
